Target: T1, human SSAO (Homo sapiens, UniProt Q16853)
T1 construct: made in house
T1 sequence (Q16853 29-763 limits assumed): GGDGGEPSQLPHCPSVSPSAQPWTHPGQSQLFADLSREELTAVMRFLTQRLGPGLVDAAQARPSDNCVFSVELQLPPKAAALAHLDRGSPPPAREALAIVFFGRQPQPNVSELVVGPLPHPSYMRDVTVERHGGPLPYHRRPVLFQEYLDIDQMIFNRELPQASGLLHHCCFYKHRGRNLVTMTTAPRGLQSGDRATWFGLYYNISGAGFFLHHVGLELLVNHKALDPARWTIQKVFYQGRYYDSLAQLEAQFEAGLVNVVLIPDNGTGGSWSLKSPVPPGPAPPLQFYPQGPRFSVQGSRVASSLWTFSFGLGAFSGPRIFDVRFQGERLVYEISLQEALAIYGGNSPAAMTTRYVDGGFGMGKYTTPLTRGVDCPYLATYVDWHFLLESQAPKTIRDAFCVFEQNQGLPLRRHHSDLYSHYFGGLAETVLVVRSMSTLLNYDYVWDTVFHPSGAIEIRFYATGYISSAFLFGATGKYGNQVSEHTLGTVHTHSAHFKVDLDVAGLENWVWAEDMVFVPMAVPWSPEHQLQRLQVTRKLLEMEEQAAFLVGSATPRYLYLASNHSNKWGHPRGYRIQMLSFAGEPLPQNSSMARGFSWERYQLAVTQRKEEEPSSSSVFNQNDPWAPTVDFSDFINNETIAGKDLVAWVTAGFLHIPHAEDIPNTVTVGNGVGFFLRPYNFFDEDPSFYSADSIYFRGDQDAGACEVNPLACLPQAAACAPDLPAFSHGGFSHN
Experiment: SSAO enzyme inhibition assay (Amplex Red/HRP coupled, benzylamine substrate)
Format: biochemical
Settings: purified recombinantly expressed human SSAO; benzylamine 100 μM; about 60 minutes pre-incubation; room temperature
Experimental: Biological Assay of the SSAO Enzyme Inhibitors
All assays were performed in room temperature with purified recombinantly expressed human SSAO. Enzyme was prepared essentially as described in Öhman et al. (Protein Expression and Purification 2006, 46, 321-331). The enzyme activity was measured with benzylamine as substrate and utilized the production of hydrogen peroxide for detection. In a horseradish peroxidise (HRP) coupled reaction, hydrogen peroxide oxidation of 10-acetyl-3,7-dihydroxyphenoxazine produced resorufin, which is a highly fluorescent compound (Zhout and Panchuk-Voloshina. Analytical Biochemistry 1997, 253, 169-174; Amplex® Red Hydrogen Peroxide/peroxidise Assay kit, Invitrogen A22188).
Briefly, test compounds were dissolved in dimethyl sulfoxide (DMSO) to a concentration of 10 mM. Dose-response measurements were assayed by either creating 1:10 serial dilutions in DMSO to produce a 7 point curve or by making 1:3 serial dilutions in DMSO to produce 11 point curves. […] Fluorescence intensity was then measured at several time points (15 minutes, 20 minutes and 30 minutes) exciting at 544 nm and reading the emission at 590 nm). […] The inhibition was measured as % decrease of the signal compared to a control without inhibitor (only diluted DMSO). […] Data was fitted to a four parameter logistic model and IC50 values were calculated using the GraphPad Prism 4 or XLfit 4 programs.

IC50 [nM]	Structure (SMILES)
89	Cc1ccc(-c2nn(C3CCOCC3)c3ccncc23)cc1 [Example 3, 3-(4-Methylphenyl)-1-(tetrahydro-2H-pyran-4-yl)-1H-pyrazolo[4,3-c]pyridine]
120	Clc1ccc(-c2nn(C3CCNCC3)c3ccncc23)cc1 [Example 5, 3-(4-Chlorophenyl)-1-piperidin-4-yl-1H-pyrazolo[4,3-c]pyridine]
